Measurements taken from patent US8097634B2, “Azacyclic derivatives” (Hoffmann-La Roche Inc., priority 2010, dated 2012).

Each compound was assayed against T1, human HSL (Homo sapiens, UniProt Q05469) (assay: Human Hormone-Sensitive Lipase (HSL) enzyme inhibition assay (colorimetric, DMPT substrate)). Conditions: human full length HSL-His6, 2,3-dimercapto-1-propanol tributyrate substrate, 37° C. 20 minutes; read-out: HSL hum IC50.
T1 construct: fused on or other part: C-terminal His6 tag
T1 sequence (Q05469 1-1076): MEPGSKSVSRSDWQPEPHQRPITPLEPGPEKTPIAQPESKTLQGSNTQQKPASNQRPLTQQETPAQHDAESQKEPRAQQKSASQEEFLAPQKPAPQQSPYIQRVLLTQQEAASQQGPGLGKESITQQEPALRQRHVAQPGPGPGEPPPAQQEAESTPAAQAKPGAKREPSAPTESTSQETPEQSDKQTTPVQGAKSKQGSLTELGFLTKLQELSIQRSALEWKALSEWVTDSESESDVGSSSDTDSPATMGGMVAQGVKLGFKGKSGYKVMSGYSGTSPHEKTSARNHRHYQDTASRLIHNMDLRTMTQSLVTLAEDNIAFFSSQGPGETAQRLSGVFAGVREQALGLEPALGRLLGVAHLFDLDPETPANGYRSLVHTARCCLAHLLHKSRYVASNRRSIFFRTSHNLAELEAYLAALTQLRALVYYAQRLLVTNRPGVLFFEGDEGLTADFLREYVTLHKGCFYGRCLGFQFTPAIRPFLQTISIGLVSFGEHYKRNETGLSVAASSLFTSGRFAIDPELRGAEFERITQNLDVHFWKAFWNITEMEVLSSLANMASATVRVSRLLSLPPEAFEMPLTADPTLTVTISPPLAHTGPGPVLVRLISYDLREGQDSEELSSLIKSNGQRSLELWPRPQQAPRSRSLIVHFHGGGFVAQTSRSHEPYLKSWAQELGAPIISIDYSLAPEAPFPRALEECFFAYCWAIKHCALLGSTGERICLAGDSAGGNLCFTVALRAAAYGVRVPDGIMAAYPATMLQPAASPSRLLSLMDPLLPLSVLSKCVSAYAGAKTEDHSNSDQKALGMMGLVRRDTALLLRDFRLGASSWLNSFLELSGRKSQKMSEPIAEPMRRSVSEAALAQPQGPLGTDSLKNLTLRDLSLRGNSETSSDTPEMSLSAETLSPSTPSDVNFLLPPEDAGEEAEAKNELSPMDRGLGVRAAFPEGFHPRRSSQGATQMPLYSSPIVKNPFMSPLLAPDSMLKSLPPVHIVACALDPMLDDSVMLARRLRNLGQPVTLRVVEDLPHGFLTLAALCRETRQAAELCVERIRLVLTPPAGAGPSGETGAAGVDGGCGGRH
Format: biochemical
Experimental: Production of Human full length Hormone Sensitive Lipase-His^6:
1) Cloning: cDNA was prepared from commercial human brain polyA+ RNA and used as a template in overlapping PCR to generate a full length human HSL ORF with a 3′-His6 tag. This full length insert was cloned into the pFast-BAC vector and the DNA-sequence of several single clones was verified. DNA from a correct full length clone with the 3′His6 tag was used to transform the E. coli strain DH10BAC. Resulting bacmid DNA was used to generate a titered baculovirus stock for protein generation. The sequence of the encoded HSL conforms to Swissprot entry Q05469, with the additional C-terminal His6-tag.
2) Protein purification: Culture: 5.5 L, High 5 cells expressing human full length HSL-His^6, 48 hr., containing 25 μM E-64. Cell count: […], 90% viable.
Cells were thawed. On ice, cells were suspended in Base Buffer containing 10% glycerol, 25 mM Tris-Cl, 300 mM NaCl, 10 mM imidazole, 10 mM 2-mercaptoethanol, 2 μg pepstatin/ml, 2 μg leupeptin/ml, 2 μg antipain/ml, pH 8.0 at 4° C. in a final volume of 475 ml with 3.75×10^7 cells/ml. […] was done at 3×30 sec., Lubrol PX was added to 0.2% final concentration followed by stirring for 15 min. at 4° C. and centrifugation at 25 k×g, 60 min., 4° C. Soluble proteins were mixed with 60 ml of pre-washed and equilibrated Ni-NTA Agarose (Qiagen 30210) followed by tumbling end-over-end, 45 min., 4° C., centrifugation 1000 rpm 5 min and letting resin settle 5 min. Supernatant was removed, the resin washed in the centrifuge vessel using 5 volumes of Base Buffer containing 0.2% Lubrol PX. Centrifugation was done again, then the supernatant discarded. The resin was poured onto a 0.8 μm membrane in a disposable filter unit (Nalge 450-0080), and washed with 5 volumes of Base Buffer containing 0.2% Lubrol PX. It was then washed with 30 volumes of Base Buffer containing 60 mM imidazole pH 7.5 at 4° C. The protein was eluated with 5 volumes of 25 mM Tris-Cl, 300 mM NaCl, 200 mM imidazole, 10 mM 2-mercaptoethanol, pH 7.5 at 4° C. by tumbling resin with buffer end-over-end, 30 min., 4° C. The resin was captured on a 0.2 μm membrane disposable filter unit (Millipore SCGP U02 RE) and the eluate collected in the reservoir. The eluate was concentrated using a 30 k MWCO centrifugal filter device (Sartorius Vivascience Vivacell 100, VC1022), to 20 ml. It was then dialyzed overnight at 4° C., two times against 2 L of 10% glycerol, 25 mM Tris-Cl, 300 mM NaCl, 0.2 mM EDTA, 0.2 mM DTT, pH 7.5 at 4° C. The protein was filtered using a 0.22 μm disposable filter unit (Millipore SCGP00525). The protein concentration was calculated from absorbance at 280 nm, using 280=0.67 cm-1 mg-1. Yield was 235 mg, total. The protein was stored at −80° C.
Human Hormone-Sensitive Lipase (HSL) enzyme inhibition assay:
HSL enzyme activity was measured by a colorimetric assay using 2,3-dimercapto-1-propanol tributyrate (Aldrich, St. Louis, Mo.) as a substrate. Typically, 1.5 mM 2,3-dimercapto-1-propanol tributyrate (DMPT) in 100 mM MOPS, pH 7.2, 0.2 mg/ml fatty acid-free BSA was prepared by sonication at 4° C. to homogenous suspension. Test compounds (2 mM stock in DMSO) were diluted 3 fold in series in DMSO. Compound solutions were diluted 24 fold in 1.5 mM DMPT containing solution and 18 ul per well was added to 384-well microplates (Corning Costar). Twelve microliters per well of human HSL (15 ug/ml) was added and the reaction mixture was incubated at 37° C. for 20 minutes. Six microliters of 12 mM dithio-bis-(2-nitrobenzoic acid) (DTNB) in DMSO plus 1.2% SDS and 0.6% Triton X-100 were added and the mixture was incubated at room temperature for 15 minutes. Product production was monitored by reading absorbance at 405 nm on an Envision Reader (PerkinElmer Life and Analytical Sciences, Shelton, Conn.).

For `O=C1CC2(CCN(c3ccc(CC(F)(F)F)cc3)C2=O)CCN1S(=O)(=O)c1ccccc1Cl` (stereo not drawn) [Example 10, 8-(2-chlorophenylsulfonyl)-2-(4-(2,2,2-trifluoroethyl)phenyl)-2,8-diazaspiro[4.5]decane-1,7-dione], which IC50 is on record?
Its IC50 is 30 nM.

With `CCCCN1CCC2(CCN(c3ccc(OC(F)(F)F)cc3)C2=O)CC1=O` (stereo not drawn) [Example 8, 8-Butyl-2-(4-trifluoromethoxy-phenyl)-2,8-diaza-spiro[4.5]decane-1,7-dione] as the compound, how does the IC50 read?
The IC50 was 100 nM.

How did the IC50 turn out when `CCCN1CCC2(CCN(c3ccc(OC(F)(F)F)cc3)C2=O)CC1=O` (stereo not drawn) [Example 2, 8-Propyl-2-(4-trifluoromethoxy-phenyl)-2,8-diaza-spiro[4.5]decane-1,7-dione] was run?
Its IC50 is 250 nM.

With `CC(C)(C)CN1CCC2(CCN(c3ccc(OC(F)(F)F)cc3)C2=O)CC1=O` (stereo not drawn) [Example 9, 8-(2,2-Dimethyl-propyl)-2-(4-trifluoromethoxy-phenyl)-2,8-diaza-spiro[4.5]decane-1,7-dione] as the compound, how does the IC50 read?
Its IC50 is 80 nM.

For `CN1CCC2(CCN(c3ccc(OC(F)(F)F)cc3)C2=O)CC1=O` (stereo not drawn) [Example 6, 8-Methyl-2-(4-trifluoromethoxy-phenyl)-2,8-diaza-spiro[4.5]decane-1,7-dione], which IC50 is on record?
The IC50 was 6020 nM.

How did the IC50 turn out when `CC(C)(C)CC(=O)N1CCC2(CCN(c3ccc(OCC(F)(F)F)cc3)C2=O)CC1=O` (stereo not drawn) [Example 12, 8-(3,3-dimethylbutanoyl)-2-(4-(2,2,2-trifluoroethoxy)phenyl)-2,8-diazaspiro[4.5]decane-1,7-dione] was run?
Its IC50 is 140 nM.

How did the IC50 turn out when `O=C1CC2(CCN1Cc1ccccc1)CCN(c1ccc(OC(F)(F)F)cc1)C2=O` (stereo not drawn) [Example 1, 8-Benzyl-2-(4-trifluoromethoxy-phenyl)-2,8-diaza-spiro[4.5]decane-1,7-dione] was run?
Its IC50 is 270 nM.

How did the IC50 turn out when `CC(C)CS(=O)(=O)N1CCC2(CCN(c3ccc(OC(F)(F)F)cc3)C2=O)CC1=O` (stereo not drawn) [Example 4, 8-(2-Methyl-propane-1-sulfonyl)-2-(4-trifluoromethoxy-phenyl)-2,8-diaza-spiro[4.5]decane-1,7-dione] was run?
Its IC50 is 160 nM.

`CCN1CCC2(CCN(c3ccc(OC(F)(F)F)cc3)C2=O)CC1=O` (stereo not drawn) [Example 7, 8-Ethyl-2-(4-trifluoromethoxy-phenyl)-2,8-diaza-spiro[4.5]decane-1,7-dione] was tested. Which IC50 did it give?
The IC50 was 810 nM.

How did the IC50 turn out when `O=C1CC2(CCN(c3ccc(OC(F)(F)F)cc3)C2=O)CCN1S(=O)(=O)c1ccccc1Cl` (stereo not drawn) [Example 3, 8-(2-Chloro-benzenesulfonyl)-2-(4-trifluoromethoxy-phenyl)-2,8-diaza-spiro[4.5]decane-1,7-dione] was run?
The IC50 was 30 nM.

`CC(C)(C)CC(=O)N1CCC2(CCN(c3ccc(CC(F)(F)F)cc3)C2=O)CC1=O` (stereo not drawn) [Example 11, 8-(3,3-dimethylbutanoyl)-2-(4-(2,2,2-trifluoroethyl)phenyl)-2,8-diazaspiro[4.5]decane-1,7-dione] was tested. Which IC50 did it give?
Its IC50 is 60 nM.

`CC(C)(C)CC(=O)N1CCC2(CCN(c3ccc(OC(F)(F)F)cc3)C2=O)CC1=O` (stereo not drawn) [Example 5, 8-(3,3-Dimethyl-butyryl)-2-(4-trifluoromethoxy-phenyl)-2,8-diaza-spiro[4.5]decane-1,7-dione] was tested. Which IC50 did it give?
Its IC50 is 110 nM.
